Data: paper PMC10687119, “Quaternary Ammonium Salts of Cationic Lipopeptides with Lysine Residues — Synthesis, Antimicrobial, Hemolytic and Cytotoxic Activities” (Probiotics and Antimicrobial Proteins, 2023)
Converted amounts (≈) assume the structure as drawn. Where a SMILES comes first, the peptide text is derived from it. [ ]: non-standard residue; d: D form. The star is where a group is joined. Lys(Me3) = C[N+](C)(C)CCCC[C@H](N)C(=O)O; Stearoyl = CCCCCCCCCCCCCCCCCC(=O)*; Palmitoyl = CCCCCCCCCCCCCCCC(=O)*; Myristoyl = CCCCCCCCCCCCCC(=O)*

Legend:
[1] = system: human red blood cells (RBCs); format: cell-based; conditions: red cells of human
Procedure: The hemolysis assay was conducted using a procedure described previously. For this purpose, human red blood cells (RBCs) isolated from K2EDTA Single Donor Human Whole blood (Innovative Research, Inc, MI, USA) were rinsed with Phosphate-buffer saline (PBS, pH 7.4±0.05, composition - KCl 2.7 mM, NaCl 140 mM, phosphate 10mM; AppliChem GmbH, Germany) by centrifugation for 10 min at 800 × g. This process was repeated 3 times and the RBCs were resuspended in PBS. Then, the stock solution of RBCs was added to the serial dilution of lipopeptides on 96-well polystyrene plates to reach a final volume of 100 μL with a 4% concentration of erythrocytes (v/v) and a concentration range of 1-512 μg/mL of tested compounds. The control wells for 0% and 100% hemolysis consisted of RBCs suspended in PBS and 1% of Triton X-100 (Sigma-Aldrich, Germany), respectively. Benzalkonium chloride (Sigma-Aldrich, Germany) was used as reference compound. Subsequently, the plates were incubated for 60 min at 37 °C and then centrifuged at 800 × g for 10 min at 4 °C (Sorvall ST […] Centrifuge, Thermo Scientific). The supernatant was carefully […] to new microtiter plates. The release of hemoglobin was monitored absorbance measurements at 540 nm (MultiskanTM GO Microplate Spectrophotometer, Thermo Scientific). All experiments were conducted in triplicate. HC50 was calculated using an ic50.tk tool.

S. aureus ATCC 33591 = format: cell-based, Staphylococcus aureus; conditions: ATCC 33591, 18 h
Procedure: (§1) The Acinetobacter baumannii ATCC BAA-1605, Enterococcus faecium ATCC 700221, Klebsiella aerogenes ATCC 13048, Klebsiella pneumoniae ATCC 700603, Pseudomonas aeruginosa ATCC 9027, Staphylococcus aureus ATCC 33591, Candida glabrata ATCC 15126 strains were acquired from the American Type Culture Collection (ATCC, Manassas, USA). All the strains were stored at −80 °C in Roti-Store cryo vials (Carl Roth GmbH, Germany) and before the tests were transferred into fresh Mueller–Hinton broth (MHB, Becton Dickinson, Poland) for bacteria or RPMI-1640 (Sigma-Aldrich, Germany) for fungi and incubated for 24 h at 37 °C. Then, the cultures were cultured on the Mueller–Hinton agar (BioMaxima, Poland) or Sabouraud dextrose agar (SDA, BioMaxima) plates, respectively, and incubated as just mentioned. For microbiological assays, a minimum of three to five well-isolated colonies of the same morphological type were carefully picked from the agar cultures. These colonies were transferred with sterile loop into fresh microbiological medium and incubated with shaking (100 rpm) at 37 °C until they reached logarithmic phase of growth. Cell densities for all assays were adjusted through spectrophotometric measurements (Multiskan GO Microplate Spectrophotometer, Thermo Fisher Scientific, Finland) at 600 and 530 nm for bacteria and fungi, respectively.
(§2) The MICs were determined by broth microdilution method according to the Clinical and Laboratory Standard Institute guidelines. For this purpose, initial inoculums of bacteria (5 × 10^5 CFU/mL) in MHB and yeasts (2 × 10^3 CFU/mL) in RPMI-1640 with 2% D-glucose were exposed to the ranging concentration of lipopeptides (1–512 μg/mL) and incubated at 37 °C for 18 h and 24 h, respectively. The experiments were conducted on 96-well microtiter polystyrene plates (Kartell, Italy). The growth was assessed visually after incubation and the MIC was assumed as the lowest peptide concentration at which a noticeable growth of microorganisms was inhibited. Benzalkonium chloride (Sigma-Aldrich, Germany) was used as reference compound. All experiments were conducted in triplicate.

[2] = system: K. pneumoniae ATCC 700603; format: cell-based, Klebsiella pneumoniae; conditions: ATCC 700603, 18 h
Procedure: as §1, §2

C. glabrata ATCC 15126 = format: cell-based, Candida glabrata; conditions: ATCC 15126, 24 h
Procedure: as §1, §2

E. faecium ATCC 700221 = format: cell-based, Enterococcus faecium; conditions: ATCC 700221, 18 h
Procedure: as §1, §2

P. aeruginosa ATCC 9027 = format: cell-based, Pseudomonas aeruginosa; conditions: ATCC 9027, 18 h
Procedure: as §1, §2

K. aerogenes ATCC 13048 = format: cell-based, Klebsiella aerogenes; conditions: ATCC 13048, 18 h
Procedure: as §1, §2

[3] = system: A. baumannii ATCC BAA 1605; format: cell-based, Acinetobacter baumannii; conditions: ATCC BAA 1605, 18 h
Procedure: as §1, §2

[4] = system: human keratinocyte cell line (HaCaT); format: cell-based; conditions: 24 h
Procedure: The immortalized human keratinocyte cell line (HaCaT), obtained from CLS (Cell Line Service, Germany) was cultured in DMEM-high glucose (Dulbecco’s Modified Eagle Medium) supplemented with 10% fetal bovine serum, 2 mM L-glutamine, 100 U/mL penicillin and 100 μg/mL streptomycin (Sigma-Aldrich; Merck KGaA) at 37 °C in a humidified atmosphere with 5% CO2. Cells were trypsinized, and the medium was renewed 2–3 times per week. The cytotoxicity of compounds was assessed by colorimetric CellTilter 96® Aqueous One Solution Cell Proliferation Assay (Promega, USA), containing a tetrazolium compound according to the manufacturer’s instructions. In brief, 7 × 10^3 HaCaT cells per well were plated on 96-well plates and incubated per night to adhere to the cultured dishes. After that time, different concentrations of the tested compounds ranging from 512 to 1 μg/mL were applied to the wells. Every compound was medium-soluble at 37 °C; thus, the non-treated cells were negative control. Serial dilutions of the tested compounds were always prepared before use. Cells were incubated with drugs for 24 h, and then, 20 μL of the CellTiter 96®AqueousOne Solution Reagent was added to each well containing treated cells in 100 µl of culture medium. After 4 h of incubation at 37 °C, the absorbance at 490 nm was recorded using a microplate reader (Epoch, BioTek Instruments, USA). The quantity of formazan product as measured by the amount of 490 nm absorbance is directly proportional to the number of living cells in culture. Benzalkonium chloride (Sigma-Aldrich, Germany) was used as reference compound. At least three independent experiments with two replicates were conducted for each concentration of a compound, and the IC50 values were calculated using GraphPad Prism 8 software.

| Compound | HC50 [1] [µg/mL] | MIC (S. aureus ATCC 33591) [µg/mL] | MIC [2] [µg/mL] | MIC (C. glabrata ATCC 15126) [µg/mL] | MIC (E. faecium ATCC 700221) [µg/mL] | MIC (P. aeruginosa ATCC 9027) [µg/mL] | MIC (K. aerogenes ATCC 13048) [µg/mL] | MIC [3] [µg/mL] | IC50 [4] [µg/mL] |
| --- | --- | --- | --- | --- | --- | --- | --- | --- | --- |
| CCCCCCCCCCCCCCCC(=O)N[C@@H](CCCC[N+](C)(C)C)C(=O)N[C@@H](CCCC[N+](C)(C)C)C(=O)N[C@@H](CCCC[N+](C)(C)C)C(N)=O [Peptide 3Pq, C16-K(Me3)^+K(Me3)^+K(Me3)^+-NH2] | >512 | 256 | >512 | >512 | 32 | >512 | 512 | >512 | >512 |
| CCCCCCCCCCCCCCCCCC(=O)N[C@@H](CCCC[N+](C)(C)C)C(=O)N[C@@H](CCCC[N+](C)(C)C)C(N)=O [Peptide 2Sq, C18-K(Me3)^+K(Me3)^+-NH2] | 22.42 ± 0.98 | 8 | 128 | 16 | 16 | >512 | 64 | 64 | 78.57 ± 5.49 |
| CCCCCCCCCCCCCCCCCC(=O)N[C@@H](CCCC[N+](C)(C)C)C(=O)N[C@@H](CCCC[N+](C)(C)C)C(=O)N[C@@H](CCCC[N+](C)(C)C)C(N)=O [Peptide 3Sq, C18-K(Me3)^+K(Me3)^+K(Me3)^+-NH2] | 385.50 ± 71.51 | 64 | 256 | 128 | 16 | 512 | 64 | 128 | 474.64 ± 29.06 |
| CCCCCCCCCCCCCC(=O)N[C@@H](CCCCN)C(=O)N[C@@H](CCCCN)C(N)=O [Peptide 2M, C14-KK-NH2] | 345.21 ± 12.80 | 16 (≈ 33.1 µM) | >512 | 256 (≈ 529 µM) | 32 (≈ 66.2 µM) | 128 (≈ 265 µM) | 512 (≈ 1060 µM) | 512 (≈ 1060 µM) | 32.49 ± 4.84 (≈ 67.2 µM) |
| CCCCCCCCCCCCCCCC(=O)N[C@@H](CCCC[N+](C)(C)C)C(=O)N[C@@H](CCCC[N+](C)(C)C)C(=O)N[C@@H](CCCC[N+](C)(C)C)C(=O)N[C@@H](CCCC[N+](C)(C)C)C(N)=O [Peptide 4Pq, C16-K(Me3)^+K(Me3)^+K(Me3)^+K(Me3)^+-NH2] (Palmitoyl-[Lys(Me3)][Lys(Me3)][Lys(Me3)][Lys(Me3)]-NH2) | >512 | 512 | >512 | >512 | 32 | >512 | 512 | >512 | >512 |
| CCCCCCCCCCCCCC(=O)N[C@@H](CCCCN)C(N)=O [Peptide 1M, C14-K-NH2] | 477.61 ± 28.02 | 16 (≈ 45 µM) | >512 | >512 | 16 (≈ 45 µM) | >512 | >512 | >512 | 4.33 ± 1.12 (≈ 12.2 µM) |
| CCCCCCCCCCCCCC(=O)N[C@@H](CCCC[N+](C)(C)C)C(=O)N[C@@H](CCCC[N+](C)(C)C)C(N)=O [Peptide 2Mq, C14-K(Me3)^+K(Me3)^+-NH2] | >512 | 128 | >512 | 512 | 128 | >512 | >512 | >512 | 258.90 ± 35.07 |
| CCCCCCCCCCCCCCCCCC(=O)N[C@@H](CCCC[N+](C)(C)C)C(=O)N[C@@H](CCCC[N+](C)(C)C)C(=O)N[C@@H](CCCC[N+](C)(C)C)C(=O)N[C@@H](CCCC[N+](C)(C)C)C(N)=O [Peptide 4Sq, C18-K(Me3)^+K(Me3)^+K(Me3)^+K(Me3)^+-NH2] (Stearoyl-[Lys(Me3)][Lys(Me3)][Lys(Me3)][Lys(Me3)]-NH2) | >512 | 64 | 256 | 512 | 16 | 512 | 64 | 256 | >512 |
| CCCCCCCCCCCCCC(=O)N[C@@H](CCCCN)C(=O)N[C@@H](CCCCN)C(=O)N[C@@H](CCCCN)C(=O)N[C@@H](CCCCN)C(N)=O [Peptide 4M, C14-KKKK-NH2] (Myristoyl-KKKK-NH2) | >512 | 32 (≈ 43.2 µM) | >512 | 512 (≈ 692 µM) | 16 (≈ 21.6 µM) | 256 (≈ 346 µM) | 256 (≈ 346 µM) | 512 (≈ 692 µM) | 252.20 ± 36.68 (≈ 341 µM) |
